US7122550B2, “Protein kinase inhibitors” (Cytopia Pty Ltd, priority 2002, dated 2006)

Columns and labels:
Format in all cases: cell-based
[1] = biological target: T1, Tel-Jak2 (Homo sapiens, UniProt O60674); experiment: Cellular growth inhibition assay (MTT), Tel-Jak2 transformed BaF3 cell line; conditions: 40 hr incubation, read-out: Jak2: growth inhibitory activity (>50%) in transformed cell line Tel-Jak2
T1 construct: The regions encompassing the kinase domains of JAK2 (nucleotides 2994–3914); TEL (ETV6, human P41212) N-terminal part encoded by nucleotides 1-487 of TEL; expressed in transfected cells; host or cells: BaF3 (murine) bearing pTET-off, transfected with pTELJAK2 (pTRE2 vector); the other entry of the earlier key: ETV6 (P41212, Transcription factor ETV6)
Excerpt: (§1) The coding region encompassing nucleotides 1–487 of TELwas amplified by PCR using the oligonucleotides 5TEL (5′-GGAGGATCCTGATCTCTCTCGCTGTGAGAC-3′) and 3TEL (5′-AGGC GTCGACTTCTTCTTCATGGTTCTG-3′) and U937 mRNA as template. A BamHI site was present into the 5TEL Primer, a SalI site was incorporated into the 3TEL primer. The regions encompassing the kinase domains of JAK2 (nucleotides 2994–3914; JAK2F 5′-ACGC GTCGACGGTGCCTTTGAAGACCGGGAT-3′; JAK2R 5′-ATAGTTTAGCGGCCGCTCAGAATGAAGGTCATTT-3′) and JAK3 (nucleotides 2520–3469; JAK3F 5′-GAAGTCGACTATGCCTGCCAAGACCCCACGATCTT-3′; JAK3R 5′-GGATCTAGACTATGAAAAGGACAGGGAGTGGTGTTT-3′) were generated by PCR using Taq DNA Polymerase (Gibco/BRL) and U937 mRNA as template. A SalI site was incorporated into the forward primer of JAK2 and JAK3, a NotI site was incorporated into the JAK2 reverse primer and a Xba I site was added to the reverse primer of JAK3.
(§2) A TEL/Jak2 fusion was generated by digestion of the TELPCR product with BamHI/SalI, digestion of the JAK2 PCR product with SalI/NotI followed by ligation and subcloning into the mammalian expression Vector pTRE 2 (Clontech) digested with BamHI-NotI (pTELJAK2). For JAK3 SalI/NotI cleaved kinase domain PCR product was ligated with BamHI/SalI cleaved TELproduct followed by ligation into BamHI/NotI cleaved pTRE2 (pTELJAK3).
(§3) The growth factor dependent myelomonocytic cell line BaF3 bearing the pTET-off plasmid (Clontech) was transfected with either pTELJAK2 or pTELJAK3 and the cells selected for factor independent growth. BaF 3 wild type cells were cultured in DMEM 10% FCS, 10% WEHI 3B conditioned medium. BaF3 TELJAK cells were cultured in DMEM 10% Tet-System Approved FBS (without WEHI 3B conditioned medium).
(§4) Cell suspensions were prepared by harvesting cells from culture. (Cells used in this test should be in later log phase growth and high viability.) Cells were diluted in correct growth medium to 1.1×final concentration (from 50000 cell/mL to 200,000 cell/mL, depending on cell line).
(§5) Compounds to be tested were added (10 μL, 10×final concentration) to a flat bottom 96-well plate. The cellular suspension (90 μL per well) was added, and the plate incubated for 40 hr at 37° C., 5% CO2. MTT (20 μL per well, 5 mg/mL in PBS) was added and the plates were returned to the incubator for a further 6 hours. Lysis buffer (100 μL per well, 10% SDS, 0.01N HCl) was added and the plate stored in the incubator overnight. The plate was then read at 590 nm.

[2] = biological target: T2, Tel-Jak3 (Homo sapiens, UniProt P52333); experiment: Cellular growth inhibition assay (MTT), Tel-Jak3 transformed BaF3 cell line; conditions: 40 hr incubation, read-out: Jak3: growth inhibitory activity (>50%) in transformed cell line Tel-Jak3
T2 construct: TEL (ETV6, human P41212) N-terminal part encoded by nucleotides 1-487 of TEL; expressed in transfected cells; host or cells: BaF3 (murine) bearing pTET-off, transfected with pTELJAK3 (pTRE2 vector); the other entry of the earlier key: ETV6 (P41212, Transcription factor ETV6)
Excerpt: as §1, §2, §3, §4, §5

[3] = system: DU145; experiment: Cellular growth inhibition assay (MTT), DU145 cells; conditions: Homo sapiens, DU-145, 40 hr incubation, read-out: DU145: growth inhibitory activity
Method: as §4, §5

T1 sequence (O60674 with tags, fused parts or gaps): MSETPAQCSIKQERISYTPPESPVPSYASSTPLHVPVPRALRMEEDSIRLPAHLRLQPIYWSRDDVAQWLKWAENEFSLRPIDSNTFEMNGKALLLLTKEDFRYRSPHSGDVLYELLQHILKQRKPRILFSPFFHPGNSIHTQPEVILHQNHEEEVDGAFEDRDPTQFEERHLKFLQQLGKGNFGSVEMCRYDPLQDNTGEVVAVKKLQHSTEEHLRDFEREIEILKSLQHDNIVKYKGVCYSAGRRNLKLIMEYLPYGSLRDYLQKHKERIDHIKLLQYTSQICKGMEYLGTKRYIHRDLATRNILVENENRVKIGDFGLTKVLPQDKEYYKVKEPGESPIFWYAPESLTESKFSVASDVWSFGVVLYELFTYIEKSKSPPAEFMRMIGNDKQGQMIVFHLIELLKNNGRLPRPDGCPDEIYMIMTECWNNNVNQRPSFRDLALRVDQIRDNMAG
T2 sequence (P52333 with tags, fused parts or gaps): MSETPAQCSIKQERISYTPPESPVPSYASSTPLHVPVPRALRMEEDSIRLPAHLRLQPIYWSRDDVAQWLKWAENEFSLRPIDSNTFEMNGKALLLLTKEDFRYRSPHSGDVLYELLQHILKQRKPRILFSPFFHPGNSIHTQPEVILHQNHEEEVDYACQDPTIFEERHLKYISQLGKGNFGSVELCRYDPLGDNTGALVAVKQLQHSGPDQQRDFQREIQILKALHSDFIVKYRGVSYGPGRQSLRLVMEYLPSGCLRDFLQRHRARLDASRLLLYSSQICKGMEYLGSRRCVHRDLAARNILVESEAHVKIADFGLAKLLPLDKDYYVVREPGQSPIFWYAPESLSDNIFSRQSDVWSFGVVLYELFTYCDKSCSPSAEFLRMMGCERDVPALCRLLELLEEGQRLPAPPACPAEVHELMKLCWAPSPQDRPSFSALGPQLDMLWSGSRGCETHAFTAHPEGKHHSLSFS

| Structure (SMILES) | inhibition at 50 µM [1] [%] | inhibition at 50 µM [2] [%] | inhibition at 50 µM [3] [%] |
| --- | --- | --- | --- |
| COc1cc(-c2cncc(N[C@H]3CCc4ccccc43)n2)ccc1O [Chemistry 68] | > 50 | > 50 |  |
| COc1cc(-c2cncc(N[C@H]3CCCc4ccccc43)n2)ccc1O [Chemistry 87] | > 50 | < 50 |  |
| COc1cc(-c2cncc(NC(C)c3ccc(-c4ccncc4)cc3)n2)ccc1O (stereo not shown) [Chemistry 266] | > 50 | > 50 | > 50 |
| COc1cc(-c2cncc(NC(C)c3ccc(-c4cccnc4)cc3)n2)ccc1O (stereo not shown) [Chemistry 270] | > 50 | > 50 | > 50 |
| COc1cc(-c2cncc(N[C@@H](C)c3ccccc3)n2)ccc1O [Chemistry 118] | > 50 | > 50 | > 50 |
| COc1cc(-c2cncc(NC(C)c3ccc(-c4ccccc4)cc3)n2)ccc1O (stereo not shown) [Chemistry 185] | > 50 | > 50 | < 50 |
| COc1ccc([C@H](C)Nc2cncc(-c3ccc(O)c(OC)c3)n2)cc1 [Chemistry 117] | > 50 | > 50 | < 50 |
| COc1cc(-c2cncc(NC(C)c3cccc(NC(=O)C4CCCN4)c3)n2)ccc1O (stereo not shown) [Chemistry 267] | > 50 | > 50 | > 50 |
| COc1cccc([C@H](C)Nc2cncc(-c3ccc(O)c(OC)c3)n2)c1 [Chemistry 158] | > 50 | > 50 | > 50 |
| COc1cc(-c2cncc(NC(C)c3ccc(C#N)cc3)n2)ccc1O (stereo not shown) [Chemistry 303] | > 50 | > 50 | < 50 |
| COc1cc(-c2cncc(N[C@@H](C)c3ccc4ccccc4c3)n2)ccc1O [Chemistry 155] | > 50 | > 50 | < 50 |
| COc1cc(-c2cncc(NC(C)c3ccc(NCc4cccnc4)cc3)n2)ccc1O (stereo not shown) [Chemistry 320] | > 50 | > 50 | < 50 |
| C[C@H](Nc1cncc(-c2ccc(NS(C)(=O)=O)cc2)n1)c1ccccc1 [Chemistry 192] | > 50 | > 50 | > 50 |
| COc1cc(-c2cncc(NC(C)c3ccc(NC(=O)C4CCCN4C(=O)OC(C)(C)C)cc3)n2)ccc1O (stereo not shown) [Chemistry 281] | > 50 | > 50 | > 50 |
| COc1cc(-c2cncc(NC(C)c3ccc(NC(=O)c4cccnc4)cc3)n2)ccc1O (stereo not shown) [Chemistry 280] | > 50 | > 50 | < 50 |
| COc1cc(-c2cncc(NC(C)c3ccc(C(=O)NCCO)cc3)n2)ccc1O (stereo not shown) [Chemistry 374] | > 50 | > 50 | < 50 |
| COc1cc(-c2cncc(NCc3ccco3)n2)ccc1O [Chemistry 141] | > 50 | > 50 | > 50 |
| COc1cc(-c2cncc(NC(C)c3ccc(NC(=O)N4CCN(C)CC4)cc3)n2)ccc1O (stereo not shown) [Chemistry 283] | > 50 | > 50 | > 50 |
| COc1cc(-c2cncc(NC(C)c3cccc(NC(=O)c4cccnc4)c3)n2)ccc1O (stereo not shown) [Chemistry 268] | > 50 | > 50 | > 50 |
| C[C@H](Nc1cncc(-c2ccc(O)c(Cl)c2)n1)c1ccccc1 [Chemistry 175] | < 50 | > 50 | < 50 |

| Structure (SMILES) | inhibition at 50 µM [1] [%] | inhibition at 50 µM [2] [%] | inhibition at 50 µM [3] [%] |
| --- | --- | --- | --- |
| COc1cc(-c2cncc(NC(C)c3cccc(NC(=O)N4CCN(C)CC4)c3)n2)ccc1O (stereo not shown) [Chemistry 241] | > 50 | > 50 | < 50 |
| COc1cc(-c2cncc(NC(C)c3cccc(NC(=O)c4ccncc4)c3)n2)ccc1O (stereo not shown) [Chemistry 269] | > 50 | > 50 | > 50 |
| CCN(CC)CCOc1ccc(C(C)Nc2cncc(-c3ccc(O)c(OC)c3)n2)cc1 (stereo not shown) [Chemistry 285] | > 50 | > 50 | > 50 |
| COc1cc(-c2cncc(NC(C)c3ccc(C(=O)NCc4cccnc4)cc3)n2)ccc1O (stereo not shown) [Chemistry 372] | > 50 | > 50 | < 50 |
| COc1cc(-c2cncc(NC(C)c3ccc(-n4ccnc4)cc3)n2)ccc1O (stereo not shown) [Chemistry 186] | > 50 | > 50 | < 50 |
| COc1cc(-c2cncc(NC(C)c3cccnc3)n2)ccc1O (stereo not shown) [Chemistry 187] | > 50 | > 50 | > 50 |
| COc1cc(-c2cncc(NC(C)c3ccc(NC(=O)c4ccncc4)cc3)n2)ccc1O (stereo not shown) [Chemistry 279] | > 50 | > 50 | > 50 |
| CNC(=O)c1ccc(C(C)Nc2cncc(-c3ccc(O)c(OC)c3)n2)cc1 (stereo not shown) [Chemistry 370] | > 50 | > 50 | < 50 |
| C[C@H](Nc1cncc(-c2ccc(NC(=O)C3CC3)cc2)n1)c1ccccc1 [Chemistry 193] | > 50 | > 50 | > 50 |
| COc1cc(-c2cncc(Nc3cc(F)ccc3C)n2)ccc1O [Chemistry 144] | > 50 | > 50 | < 50 |
| COc1cc(-c2cncc(N(C)[C@@H](C)c3ccccc3)n2)ccc1O [Chemistry 142] | > 50 | > 50 | < 50 |
| COc1cc(-c2cncc(NC(C)c3ccncc3)n2)ccc1O (stereo not shown) [Chemistry 200] | > 50 | > 50 | < 50 |
| C[C@H](Nc1cncc(-c2ccc(N)cc2)n1)c1ccccc1 [Chemistry 181] | > 50 | > 50 | < 50 |
| COc1cc(-c2cncc(Nc3cc(Cl)ccc3C)n2)ccc1O [Chemistry 130] | > 50 | < 50 | > 50 |
| COc1cc(-c2cncc(NC(C)c3ccc(N)cc3)n2)ccc1O (stereo not shown) [Chemistry 319] | > 50 | > 50 | < 50 |
| C[C@H](Nc1cncc(-c2ccc(NS(=O)(=O)c3ccccc3)cc2)n1)c1ccccc1 [Chemistry 226] | > 50 | > 50 | > 50 |
| COc1cc(-c2cncc(NC(C)c3ccc(C(N)=O)cc3)n2)ccc1O (stereo not shown) [Chemistry 304] | > 50 | > 50 | < 50 |
| COc1cc(-c2cncc(Nc3ccc(F)cc3C)n2)ccc1O [Chemistry 156] | > 50 | > 50 | < 50 |
| C[C@H](Nc1cncc(-c2ccc(F)c(Cl)c2)n1)c1ccccc1 [Chemistry 174] | > 50 | > 50 | < 50 |
